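Five compound concentrations were applied to cells in 96-well plates for 48 hours; endpoints were derived by simple linear interpolation of the resulting dose-response curve. GI50: concentration for 50% inhibition of growth.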 The source made the active and inactive calls. Rule as the data show it: active = GI50 up to about 1.1 µM and inactive = higher.
Columns and labels:
Assay in all cases: DTP human tumour cell line panel, 48 h
OVCAR-4 = tested on: OVCAR-4
SR = tested on: SR
TK-10 = tested on: TK-10
K562 = tested on: K562
IGROV-1 = tested on: IGROV-1
U-251 = tested on: U-251
HL-60 = tested on: HL-60
COLO 205 = tested on: COLO 205
CCRF-CEM = tested on: CCRF-CEM
SF-539 = tested on: SF-539
RPMI-8226 = tested on: RPMI-8226
MDA-MB-435 = tested on: MDA-MB-435
NCI/ADR-RES = tested on: NCI/ADR-RES
SNB-75 = tested on: SNB-75
OVCAR-5 = tested on: OVCAR-5
SK-OV-3 = tested on: SK-OV-3
HCT-116 = tested on: HCT-116
T47D = tested on: T47D
HOP-62 = tested on: HOP-62
SW-620 = tested on: SW-620
OVCAR-8 = tested on: OVCAR-8
ACHN = tested on: ACHN
OVCAR-3 = tested on: OVCAR-3
PC-3 = tested on: PC-3
NCI-H522 = tested on: NCI-H522
KM12 = tested on: KM12
LOX IMVI = tested on: LOX IMVI
BT-549 = tested on: BT-549
Hs-578T = tested on: Hs-578T
SK-MEL-5 = tested on: SK-MEL-5
UO-31 = tested on: UO-31
HOP-92 = tested on: HOP-92
NCI-H23 = tested on: NCI-H23
UACC-257 = tested on: UACC-257
NCI-H460 = tested on: NCI-H460
SK-MEL-2 = tested on: SK-MEL-2
SNB-19 = tested on: SNB-19
NCI-H226 = tested on: NCI-H226
A549 = tested on: A549
HCT-15 = tested on: HCT-15
MCF7 = tested on: MCF7
SF-268 = tested on: SF-268
HT-29 = tested on: HT-29
DU-145 = tested on: DU-145
SF-295 = tested on: SF-295
Malme-3M = tested on: Malme-3M
EKVX = tested on: EKVX
M14 = tested on: M14
RXF 393 = tested on: RXF 393
MOLT-4 = tested on: MOLT-4
SK-MEL-28 = tested on: SK-MEL-28
786-0 = tested on: 786-0
HCC 2998 = tested on: HCC 2998
MDA-N = tested on: MDA-N
SN12C = tested on: SN12C
UACC-62 = tested on: UACC-62
MDA-MB-231 = tested on: MDA-MB-231

O=C(O)C1(Cc2ccccc2)Cc2cc3c(cc2C1)CCC3
GI50 (OVCAR-4): > 100 µM (inactive)
GI50 (SR): > 100 µM (inactive)
GI50 (TK-10): > 100 µM (inactive)
GI50 (K562): 72.9 µM (inactive)
GI50 (IGROV-1): > 100 µM (inactive)
GI50 (U-251): 66.4 µM (inactive)
GI50 (HL-60): 48.9 µM (inactive)
GI50 (COLO 205): > 100 µM (inactive)
GI50 (CCRF-CEM): 45.1 µM (inactive)
GI50 (SF-539): > 100 µM (inactive)
GI50 (RPMI-8226): 58.1 µM (inactive)
GI50 (MDA-MB-435): > 100 µM (inactive)
GI50 (NCI/ADR-RES): 89.3 µM (inactive)
GI50 (SNB-75): > 100 µM (inactive)
GI50 (OVCAR-5): > 100 µM (inactive)
GI50 (SK-OV-3): > 100 µM (inactive)
GI50 (HCT-116): 42.9 µM (inactive)
GI50 (T47D): 18.3 µM (inactive)
GI50 (HOP-62): 99.3 µM (inactive)
GI50 (SW-620): > 100 µM (inactive)
GI50 (OVCAR-8): > 100 µM (inactive)
GI50 (ACHN): > 100 µM (inactive)
GI50 (OVCAR-3): > 100 µM (inactive)
GI50 (PC-3): > 100 µM (inactive)
GI50 (NCI-H522): > 100 µM (inactive)
GI50 (KM12): 68.4 µM (inactive)
GI50 (LOX IMVI): > 100 µM (inactive)
GI50 (BT-549): > 100 µM (inactive)
GI50 (Hs-578T): 75.2 µM (inactive)
GI50 (SK-MEL-5): > 100 µM (inactive)
GI50 (UO-31): 95.3 µM (inactive)
GI50 (HOP-92): 21 µM (inactive)
GI50 (NCI-H23): > 100 µM (inactive)
GI50 (UACC-257): > 100 µM (inactive)
GI50 (NCI-H460): 86.9 µM (inactive)
GI50 (SK-MEL-2): 82 µM (inactive)
GI50 (SNB-19): > 100 µM (inactive)
GI50 (NCI-H226): > 100 µM (inactive)
GI50 (A549): 51.4 µM (inactive)
GI50 (HCT-15): 52.6 µM
GI50 (MCF7): > 100 µM (inactive)
GI50 (SF-268): 78.9 µM (inactive)
GI50 (HT-29): > 100 µM (inactive)
GI50 (DU-145): > 100 µM (inactive)
GI50 (SF-295): > 100 µM (inactive)
GI50 (Malme-3M): > 100 µM (inactive)
GI50 (EKVX): 54.2 µM (inactive)
GI50 (M14): 44.1 µM (inactive)
GI50 (RXF 393): > 100 µM (inactive)
GI50 (MOLT-4): > 100 µM (inactive)
GI50 (SK-MEL-28): > 100 µM (inactive)
GI50 (786-0): > 100 µM (inactive)
GI50 (HCC 2998): 58.2 µM (inactive)
GI50 (MDA-N): > 100 µM (inactive)
GI50 (SN12C): > 100 µM (inactive)
GI50 (UACC-62): > 100 µM (inactive)
GI50 (MDA-MB-231): > 100 µM (inactive)
